“Also recorded” adds a separate entry of the source.
Legend:
MDA-MB-468 cells = assay: three-dimensional spheroid multi-parametric assay, MDA-MB-468; format: cell-based, human; details: MDA-MB-468 spheroids, 24 h; for activity / potency in cell line (image analysis, FIG. 2): average of three experiments
Method: Controls included 10 μM ABT737, 5 μg/mL 5-fluorouracil, 0.5 μg/mL doxorubicin, media alone, and solvent controls. After treatments, cells were labeled with the cell permeable nuclear stain Hoechst 33342, a marker for cleaved caspase 3/7, and the cell impermeable nucleic acid stain 7AAD for three hours. Cells were fixed then images acquired using a high content imager at 10× magnification. Scale bars represent 200 μm. The experiment was repeated 3 times.
MDA-MB-231 or MDA-MB-468 cells were plated on a black plate with clear bottom low adherence spheroid 384-well tissue culture plate (Corning 3830; Corning NY) at a concentration of 1,500 cells per well in ice-cold complete media without phenol red containing 2.5% matrigel (BD Biosciences, Billerica, MA) in a final volume of 30 μL/well and allowed to adhere for 24 hours. After confirming the formation of a spheroid, 30 μL of medium containing treatment at two times the final concentration was added. Treatments consisted of 10, 5, 2.5 or 1.25 μM oxfendazole (OFZ), 5, 2.5, 1.25 or 0.625 μM parbendazole (PBZ) or a combination 10/5, 5/2.5, 2.5/1.25 or 1.25/0.625 μM OFZ/PBZ. Controls included 10 μM ABT737, 5 μg/mL 5-fluorouracil, 0.5 μg/mL doxorubicin, media alone, and solvent controls. Solvent for drug treatments was 10% DMSO by weight. Cells were incubated with treatment for 24 h. At the end of this incubation 20 μL/well of a staining mixture containing 2 drops/mL NucBlue Live Cell Stain Hoechst 33342 (Molecular Probes, Eugene, OR), 5 μM CellEvent™ Caspase-3/7 Green Detection Reagent (Molecular Probes, Eugene, OR) and […] 7-amino-actinomycin D (7AAD; Sigma, St. Louis, MO) were added and allowed to incubate for 3 h. Cells were fixed with 4% paraformaldehyde by weight. Images were acquired using the ImageXpress® Micro XLS widefield HCS (Molecular Devices, Sunnyvale, CA), with a 10× Plan Fluor objective, binning at 2 and focusing on plate bottom, then offset by bottom thickness. A stack of 8 images separated by 10 μm starting at the well bottom and covering approximately the lower half of each spheroid were acquired. The best focus projection of this stack was analyzed using the Multi-Wavelength Cell Scoring Module of the MetaXpress 5.1.0.3 software (Molecular Devices, Sunnyvale, CA). The results were plotted using Microsoft excel (Redmond, WA). To normalize results, the solvent control values were subtracted from the 7AAD and the Caspase 3 percent positive results for treatment samples. Total cell count was expressed as a percentage comparing treatments to respective solvent controls. Compounds were tested in duplicate within plates. The in vitro effectiveness of BZs, either singly or in combination on tumor cytotoxicity using MDA-MB468 human breast cancer cell line spheroids was assessed. […]

MDA-MB-231 cells = assay: three-dimensional spheroid multi-parametric assay, MDA-MB-231; format: cell-based, human; details: MDA-MB-231 spheroids, 24 h; for activity / potency in cell line (image analysis, FIG. 4): average of three experiments
Method: MDA-MB-231 or MDA-MB-468 cells were plated on a black plate with clear bottom low adherence spheroid 384-well tissue culture plate (Corning 3830; Corning NY) at a concentration of 1,500 cells per well in ice-cold complete media without phenol red containing 2.5% matrigel (BD Biosciences, Billerica, MA) in a final volume of 30 μL/well and allowed to adhere for 24 hours. After confirming the formation of a spheroid, 30 μL of medium containing treatment at two times the final concentration was added. Treatments consisted of 10, 5, 2.5 or 1.25 μM oxfendazole (OFZ), 5, 2.5, 1.25 or 0.625 μM parbendazole (PBZ) or a combination 10/5, 5/2.5, 2.5/1.25 or 1.25/0.625 μM OFZ/PBZ. Controls included 10 μM ABT737, 5 μg/mL 5-fluorouracil, 0.5 μg/mL doxorubicin, media alone, and solvent controls. Solvent for drug treatments was 10% DMSO by weight. Cells were incubated with treatment for 24 h. At the end of this incubation 20 μL/well of a staining mixture containing 2 drops/mL NucBlue Live Cell Stain Hoechst 33342 (Molecular Probes, Eugene, OR), 5 μM CellEvent™ Caspase-3/7 Green Detection Reagent (Molecular Probes, Eugene, OR) and […] 7-amino-actinomycin D (7AAD; Sigma, St. Louis, MO) were added and allowed to incubate for 3 h. Cells were fixed with 4% paraformaldehyde by weight. Images were acquired using the ImageXpress® Micro XLS widefield HCS (Molecular Devices, Sunnyvale, CA), with a 10× Plan Fluor objective, binning at 2 and focusing on plate bottom, then offset by bottom thickness. A stack of 8 images separated by 10 μm starting at the well bottom and covering approximately the lower half of each spheroid were acquired. The best focus projection of this stack was analyzed using the Multi-Wavelength Cell Scoring Module of the MetaXpress 5.1.0.3 software (Molecular Devices, Sunnyvale, CA). The results were plotted using Microsoft excel (Redmond, WA). To normalize results, the solvent control values were subtracted from the 7AAD and the Caspase 3 percent positive results for treatment samples. Total cell count was expressed as a percentage comparing treatments to respective solvent controls. Compounds were tested in duplicate within plates. The in vitro effectiveness of BZs, either singly or in combination on tumor cytotoxicity using MDA-MB468 human breast cancer cell line spheroids was assessed.
FIG. 3 illustrates the in vitro effectiveness of BZs, either singly or in combination on tumor cytotoxicity using MDA-MB4231 human breast cancer cell line spheroids. […] Images were analyzed to determine cell counts based on DNA (Hoechst 33342 stain; blue), those dying through apoptosis by following cleavage of caspase 3, and cells dead or dying as measured by the loss of their membrane integrity (7-aminoactinomycin; red). […]

[1] = cited from earlier work
[2] = cited from earlier work; remark: listed apart in the source
[3] = tested on: 4T1Br4 mammary tumor cells; assay: 4T1Br4 triple negative breast cancer model in BALB/c mice, oral gavage treatment
Description: Light to ten-week-old BALB/c mice (Charles River Laboratories; total of 48 mice) are orthotopically injected with 25,000-50,000 4T1Br4 mammary tumor cells in 100 microliters unilaterally into 4th mammary fat pad. Primary tumor growth was monitored by caliper measurements and biweekly body weight and wellness checks. When tumor size reached 0.5-0.7 cu cm, animals were divided into 4 experimental groups: 1) No Treatment (n=8), 2) Single OFZ Treatment (n=8), 3) Single CMP Treatment (n=16), 4) Combination CMP and OFZ/PBZ Treatment (n=16). Treatments started at 2 weeks post cancer cell inoculation. The following are the oral gavage doses: OFZ, 5 mg/kg; PBZ, 9 mg/kg; FBZ, 10 mg/kg; CMPs 10 mg/kg. All drugs are dissolved in sterile saline and final gavage volume is 200 microliters per mouse. […] When primary tumors reach 1 cu cm, they were excised under general anesthesia for all groups except for half of the animals in single CMP and combination CMP and BZ treatments. For those groups, half of the animals in each of these drug treatments received tumor excision surgery and for the remaining half, the primary tumors are untouched throughout the course of the experiment. Primary tumor size, percentage tumor growth compared to pre-treatment baseline, body weights and survival were assessed. Upon death, necropsy was conducted to assess metastatic tumor growth in distal organs. […] Treatment started 2 weeks past orthotopic cancer cell inoculation. […] Values are represented as means+SEMs.
Treatment started 2 weeks post-cancer cell inoculation. […] Data are represented as group averages+SEMs.
Measures were averaged for each week and represented as Means+SEMs. Treatment started two weeks post-inoculation with cancer cells.
Necropsy was then conducted on the animals that expired for assessment of gross metastasis in lungs, brain and liver that may be responsible for expiration of mice. Detailed necropsy was performed and archived for each animal.

Row | Structure (SMILES) | caspase 3/7 cleavage (MDA-MB-468 cells) | activity / potency in cell line (image analysis, FIG. 2) (MDA-MB-468 cells) | caspase cleavage (induction of apoptosis) (MDA-MB-231 cells) | activity / potency in cell line (image analysis, FIG. 4) (MDA-MB-231 cells) | time to peak blood levels ([1]; after oral administration) | time to full recovery of liver function after cessation of treatment ([1]; transient liver function suppression) | death by loss of membrane integrity (7AAD) (MDA-MB-468 cells) | plasma half-life ([2]; in animals) | tolerability / toxicity ([2]; in vivo) | time of expiration / euthanasia of representative mouse ([3]; days post cancer cell inoculation) | lung metastasis at necropsy ([3]; gross necropsy) | cause of death of group ([3]; necropsy, listed as OFZ Alone) | angiogenesis at tumor / excision site ([3]; representative mouse) | splenomegaly ([3]; representative mouse, necropsy) | body weight across treatment weeks (FIG. 7) ([3]; tumor-bearing mice, measured biweekly) | survival at 6th week of treatment (animals remaining) ([3]; week 6 of treatment)
1 | CCCCc1ccc2nc(NC(=O)OC)[nH]c2c1 [PBZ, N-(6-butyl-1H-benzimidazol-2-yl) carbamic acid methyl ester] | caused more caspase cleavage | active; also recorded: statistically significantly more potent than OFZ | caused caspase cleavage | statistically significantly more potent than OFZ | 6 to 8 h | ≤ 2 weeks |  |  |  |  |  |  |  |  |  | 
2 | COC(=O)Nc1nc2ccc([S+]([O-])c3ccccc3)cc2[nH]1 (stereo not shown) [OFZ, (5-(phyenylsulphinyl)-18-benzimidazole-2yl) carmabic acid methyl ester] |  | active | caused caspase cleavage | more modest activity |  |  | favoring death by loss of membrane integrity | 8.5 to 11 h | extremely well-tolerated with no known toxicity | 32 days | extensive metastases in the mouse lungs | expired entirely due to lung metastasis; also recorded: metastatic process in the lungs as cause of death | angiogenesis is visible | instances of splenomegaly | significant decline in bodyweight measurements | deceased

From US12194058B2, “Cancer treatment regimen using anti-parasitic compounds and gut microbiome modulating agents” (FLORIDA ATLANTIC UNIVERSITY BOARD OF TRUSTEES, priority 2021, dated 2025)
